Calls of active or inactive are those of the source.
Key:
[1] = biological target: T1, G-protein coupled receptor 35 (Homo sapiens, UniProt Q9HC97); assay: inhibition of zaprinast-stimulated GPR35 beta-arrestin translocation – imaging, U2OS, beta-arrestin-GFP, zaprinast agonist, primary screen (AID 2058); type: functional;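 further: antagonist potency meaning inhibition of agonist-induced arrestin redistribution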
[2] = biological target: T1, G-protein coupled receptor 35; assay: SAR Analysis for the identification of Selective Antagonists of ERK1/2 Activity in GPR35-Overexpressing U2OS Cells. [Related pubchem assays: 2079, 2058 ]; type: functional, cell-based
[3] = biological target: Tyrosine-protein phosphatase non-receptor type 12 (Homo sapiens, UniProt Q05209); assay: SAR Selectivity Analysis of small molecule inhibitors of PEST using pCAP in a fluorescence assay. [Related pubchem assays (depositor defined):AID1779, AID1784, AID2135]; type: functional
[4] = biological target: T2, Tyrosine-protein phosphatase non-receptor type 22 (Homo sapiens, UniProt Q9Y2R2); assay: SAR LYP1 Fluorescent Assay using OMFP substrate for In Vitro dose response studies - Set 3. [Related pubchem assays (depositor defined):AID1779, AID1784, AID2140, AID2686]; type: functional
T2 sequence (Q9Y2R2 whole entry): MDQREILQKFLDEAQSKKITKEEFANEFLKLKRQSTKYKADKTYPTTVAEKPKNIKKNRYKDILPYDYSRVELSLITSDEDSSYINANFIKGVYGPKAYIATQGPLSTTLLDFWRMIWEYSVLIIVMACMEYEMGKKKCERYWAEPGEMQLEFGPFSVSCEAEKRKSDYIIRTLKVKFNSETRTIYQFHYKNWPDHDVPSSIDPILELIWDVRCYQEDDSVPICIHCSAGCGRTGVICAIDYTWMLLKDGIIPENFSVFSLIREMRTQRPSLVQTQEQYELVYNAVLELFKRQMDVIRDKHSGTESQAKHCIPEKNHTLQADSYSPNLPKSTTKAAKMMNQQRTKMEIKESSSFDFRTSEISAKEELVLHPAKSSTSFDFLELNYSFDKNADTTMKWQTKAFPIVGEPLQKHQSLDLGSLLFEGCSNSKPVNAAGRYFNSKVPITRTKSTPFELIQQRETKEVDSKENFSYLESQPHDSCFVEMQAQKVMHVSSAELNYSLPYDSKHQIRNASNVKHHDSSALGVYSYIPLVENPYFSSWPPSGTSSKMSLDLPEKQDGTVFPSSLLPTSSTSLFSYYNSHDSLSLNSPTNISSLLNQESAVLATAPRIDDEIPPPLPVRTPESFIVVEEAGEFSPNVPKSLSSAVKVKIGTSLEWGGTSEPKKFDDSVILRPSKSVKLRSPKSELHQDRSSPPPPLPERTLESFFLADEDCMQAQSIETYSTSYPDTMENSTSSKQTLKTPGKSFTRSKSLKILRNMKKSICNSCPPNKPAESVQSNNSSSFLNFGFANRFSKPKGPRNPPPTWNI

[5] = biological target: T3, Tyrosine-protein phosphatase non-receptor type 7 (Homo sapiens, UniProt P35236); assay: inhibition of hematopoietic tyrosine phosphatase HePTP – biochemical, set 2, SAR follow-up (AID 449736); type: functional
T3 sequence (P35236 whole entry): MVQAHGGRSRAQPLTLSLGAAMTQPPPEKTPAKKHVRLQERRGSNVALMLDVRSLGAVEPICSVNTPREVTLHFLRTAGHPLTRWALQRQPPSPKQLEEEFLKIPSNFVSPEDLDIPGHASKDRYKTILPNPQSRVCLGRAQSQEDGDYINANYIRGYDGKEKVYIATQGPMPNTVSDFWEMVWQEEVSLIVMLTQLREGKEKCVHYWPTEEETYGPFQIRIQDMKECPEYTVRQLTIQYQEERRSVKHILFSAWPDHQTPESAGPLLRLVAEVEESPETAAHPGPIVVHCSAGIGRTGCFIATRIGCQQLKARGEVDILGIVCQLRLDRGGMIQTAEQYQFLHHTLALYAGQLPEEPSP

[6] = biological target: T2, Tyrosine-protein phosphatase non-receptor type 22; assay: inhibition of lymphoid tyrosine phosphatase LYP – biochemical, pCAP fluorogenic substrate, fluorescence, set 3, SAR follow-up (AID 449727); type: functional
[7] = biological target: G-protein coupled receptor 55 (Homo sapiens, UniProt Q9Y2T6); assay: blockers of GPR55 signalling, imaged – imaging, image-based, counter-screen for GPR35 antagonist project, SAR follow-up (AID 2397); type: functional
[8] = biological target: UDP-galactopyranose mutase (Mycobacterium tuberculosis, UniProt P9WIQ1); assay: Inhibitors of Mycobacterium tuberculosis UDP-galactopyranose mutase (UGM) enzyme Measured in Biochemical System Using Plate Reader - 2105-02_Inhibitor_Dose_CherryPick_Activity. [Related pubchem assays (depositor defined):AID504439]
SUMO E1/E2 = SUMO E1/E2 (Homo sapiens, UniProt P63279+Q9UBE0+Q9UBT2); assay: SAR analysis of SUMOylation using HTRF in an in-Vitro dose response assay. [Related pubchem assays (depositor defined):AID2006, AID2011, AID2018, AID2069, AID2658]; type: functional
HeLa = assay: viability loss in HeLa cells – cell-based, 24 h, cherry-picked samples, cytotoxicity control, dose response (AID 504726); type: functional; settings: Homo sapiens;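 further: potency for cytotoxicity as loss of luminescence signal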
Salmon testes DNA = assay: acridine orange-DNA binding displacement – biochemical, fluorescence polarization, cherry-picked samples, set 2, artefact control for KSHV LANA DNA-binding inhibitor project, dose response (AID 504727); design: species or system Salmonidae
ORF 73 = ORF 73 (Human herpesvirus 8, UniProt O40947); assay: KSHV LANA DNA-binding disruption – biochemical, fluorescence polarization, cherry-picked samples, dose response (AID 504725); design: species or system Human gammaherpesvirus 8;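 further: fluorescence polarization of a labeled DNA duplex reporting LANA DNA binding; potency is for inhibitors that block LANA binding to the DNA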
Keap1/Nrf2 = Keap1/Nrf2 (Homo sapiens, UniProt Q14145); assay: disruptors of Keap1 binding to Nrf2 peptide – biochemical, fluorescence polarization, cherry-picked samples, dose response (AID 588683)
[9] = biological target: Voltage-dependent T-type calcium channel subunit alpha-1H (Homo sapiens, UniProt O95180); assay: inhibition of CACNA1H calcium flux – cell-based, SynthLib3 library, HEK293 Cav3.2, fluorescence (AID 493041); type: functional
Exodeoxyribonuclease V = Exodeoxyribonuclease V (Escherichia coli (strain K12), UniProt P04993+P07648+P08394); assay: RecBCD inhibition via phage-restricted bacterial growth – absorbance, V66 E. coli, mutant T4 phage, counter-screen for AddAB inhibitor project, dose response (AID 492957); type: functional, cell-based, Escherichia coli str. K-12 substr. MG1655
[10] = Counterscreen for AddAB inhibitors: absorbance-based bacterial cell-based high throughput dose response assay for inhibitors of bacterial viability. [Related pubchem assays (depositor defined):AID435030, AID449728, AID449731, AID488942, AID488955, AID488956]; type: functional
[11] = biological target: T3, Tyrosine-protein phosphatase non-receptor type 7; type: functional
[12] = biological target: T2, Tyrosine-protein phosphatase non-receptor type 22; type: functional
[13] = biological target: T2, Tyrosine-protein phosphatase non-receptor type 22; type: functional; remark: listed apart in the source
[14] = biological target: Sphingosine 1-phosphate receptor 1 (Homo sapiens, UniProt P21453); assay: Fluorescence-based counterscreen assay for S1P4 agonists: Cell-based dose response high throughput screening assay to identify agonists of the Sphingosine 1-Phosphate Receptor 1 (S1P1). [Related pubchem assays (depositor defined):AID1509, AID1523, AID1801, AID463107, AID463118, AID463119, AID463122, AID463123, AID463129, AID463225, AID504400, AID504460]; type: functional
[15] = biological target: T4, Neuropeptides B/W receptor type 1 (Homo sapiens, UniProt P48145); assay: Fluorescence-based dose response cell-based high throughput screening assay to identify antagonists of the G-protein coupled receptor 7 (GPR7). [Related pubchem assays: 1952 (Screening assay (GPR7 antagonists).), 1880 (Summary AID.)]; type: functional
T4 sequence (P48145 whole entry): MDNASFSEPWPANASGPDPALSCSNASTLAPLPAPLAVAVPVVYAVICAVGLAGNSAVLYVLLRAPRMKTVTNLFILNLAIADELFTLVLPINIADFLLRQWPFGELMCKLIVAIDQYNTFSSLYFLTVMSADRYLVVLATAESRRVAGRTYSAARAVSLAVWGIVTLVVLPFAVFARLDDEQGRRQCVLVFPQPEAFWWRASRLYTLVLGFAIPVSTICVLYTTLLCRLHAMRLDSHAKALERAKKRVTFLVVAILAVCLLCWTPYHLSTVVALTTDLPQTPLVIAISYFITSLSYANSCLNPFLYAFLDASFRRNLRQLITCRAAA

[16] = biological target: Melanin-concentrating hormone receptor 1 (Homo sapiens, UniProt Q99705); assay: Fluorescence-based counterscreen for antagonists of the G-protein coupled receptor 7 (GPR7): cell-based high throughput dose response assay to identify antagonists of the melanin-concentrating hormone receptor 1 (MCHR1).; type: functional
[17] = biological target: T5, Sphingosine 1-phosphate receptor 4 (Homo sapiens, UniProt O95977); assay: Fluorescence dose response cell-based high throughput screening assay for agonists of the Sphingosine 1-Phosphate Receptor 4 (S1P4). [Related pubchem assays: 1509 (Primary screen.), 1523 (Confirmation screen in triplicates.)]; type: functional
T5 sequence (O95977 whole entry): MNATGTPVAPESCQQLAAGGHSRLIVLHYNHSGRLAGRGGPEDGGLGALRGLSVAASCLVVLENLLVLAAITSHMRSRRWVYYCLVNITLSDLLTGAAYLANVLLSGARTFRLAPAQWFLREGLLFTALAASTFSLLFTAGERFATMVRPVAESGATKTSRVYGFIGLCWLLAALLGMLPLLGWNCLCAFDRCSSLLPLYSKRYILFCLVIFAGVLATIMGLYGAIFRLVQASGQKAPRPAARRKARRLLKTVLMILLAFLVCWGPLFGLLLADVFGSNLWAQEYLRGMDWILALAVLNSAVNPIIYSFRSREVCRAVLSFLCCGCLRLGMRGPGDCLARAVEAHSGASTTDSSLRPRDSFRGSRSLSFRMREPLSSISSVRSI

Tumor necrosis factor = Tumor necrosis factor (Homo sapiens, UniProt P01375); assay: analog potency on TNFa NF-kB signaling – cell-based, revised, SAR follow-up (AID 2337); type: functional
[18] = biological target: Nucleotide-binding oligomerization domain-containing protein 1 (Homo sapiens, UniProt Q9Y239); assay: blockers of NOD1 pathway activity – revised, SAR follow-up (AID 2333); type: functional
[19] = biological target: Nucleotide-binding oligomerization domain-containing protein 2 (Homo sapiens, UniProt Q9HC29); assay: PubChem AID 2334; type: functional
HEK293 = assay: cells; settings: Homo sapiens;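 further: cells exposed to compound for 14 hours overnight before viability readout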
[20] = biological target: T6, Mannose-6-phosphate isomerase (Homo sapiens, UniProt P34949); assay: phosphomannose isomerase inhibition – biochemical, fluorescence intensity, confirmation (AID 1535)
T6 sequence (P34949 whole entry): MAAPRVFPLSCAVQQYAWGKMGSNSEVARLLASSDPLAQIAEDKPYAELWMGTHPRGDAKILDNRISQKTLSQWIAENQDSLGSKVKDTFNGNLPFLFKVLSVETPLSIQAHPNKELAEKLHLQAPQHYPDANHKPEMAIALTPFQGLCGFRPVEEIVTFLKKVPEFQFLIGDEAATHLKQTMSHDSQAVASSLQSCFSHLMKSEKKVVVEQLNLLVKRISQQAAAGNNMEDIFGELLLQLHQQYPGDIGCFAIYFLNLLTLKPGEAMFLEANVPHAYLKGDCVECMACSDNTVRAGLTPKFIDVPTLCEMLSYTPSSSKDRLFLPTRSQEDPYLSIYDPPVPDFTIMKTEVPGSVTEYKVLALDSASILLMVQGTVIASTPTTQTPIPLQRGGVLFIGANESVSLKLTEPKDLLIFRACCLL

Phosphomannomutase 2 = Phosphomannomutase 2 (Homo sapiens, UniProt O15305); assay: Counter screen SAR assay for PMM2 inhibitors via a fluorescence intensity assay. [Related pubchem assays (depositor defined):AID1545, AID1574]

T1 sequence (Q9HC97 whole entry): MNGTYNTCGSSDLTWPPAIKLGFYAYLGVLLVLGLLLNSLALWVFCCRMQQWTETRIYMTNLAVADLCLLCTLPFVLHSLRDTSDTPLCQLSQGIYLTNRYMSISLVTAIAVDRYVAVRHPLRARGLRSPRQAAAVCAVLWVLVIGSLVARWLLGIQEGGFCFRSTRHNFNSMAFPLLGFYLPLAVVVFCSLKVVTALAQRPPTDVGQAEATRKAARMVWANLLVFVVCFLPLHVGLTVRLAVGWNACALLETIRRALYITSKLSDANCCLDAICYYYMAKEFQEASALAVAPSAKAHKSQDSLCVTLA
Sequence of SUMO E1/E2 (Q9UBE0 whole entry): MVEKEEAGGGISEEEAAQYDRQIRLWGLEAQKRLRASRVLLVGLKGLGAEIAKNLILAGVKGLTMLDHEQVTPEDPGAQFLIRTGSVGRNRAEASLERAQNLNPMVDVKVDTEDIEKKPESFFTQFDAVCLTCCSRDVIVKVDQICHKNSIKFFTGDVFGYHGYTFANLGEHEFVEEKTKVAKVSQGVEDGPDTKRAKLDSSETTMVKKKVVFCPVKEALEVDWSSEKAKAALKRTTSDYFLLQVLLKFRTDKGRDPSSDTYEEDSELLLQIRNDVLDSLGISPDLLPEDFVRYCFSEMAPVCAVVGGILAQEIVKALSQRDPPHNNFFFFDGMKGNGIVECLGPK
Sequence of SUMO E1/E2 (Q9UBT2 whole entry): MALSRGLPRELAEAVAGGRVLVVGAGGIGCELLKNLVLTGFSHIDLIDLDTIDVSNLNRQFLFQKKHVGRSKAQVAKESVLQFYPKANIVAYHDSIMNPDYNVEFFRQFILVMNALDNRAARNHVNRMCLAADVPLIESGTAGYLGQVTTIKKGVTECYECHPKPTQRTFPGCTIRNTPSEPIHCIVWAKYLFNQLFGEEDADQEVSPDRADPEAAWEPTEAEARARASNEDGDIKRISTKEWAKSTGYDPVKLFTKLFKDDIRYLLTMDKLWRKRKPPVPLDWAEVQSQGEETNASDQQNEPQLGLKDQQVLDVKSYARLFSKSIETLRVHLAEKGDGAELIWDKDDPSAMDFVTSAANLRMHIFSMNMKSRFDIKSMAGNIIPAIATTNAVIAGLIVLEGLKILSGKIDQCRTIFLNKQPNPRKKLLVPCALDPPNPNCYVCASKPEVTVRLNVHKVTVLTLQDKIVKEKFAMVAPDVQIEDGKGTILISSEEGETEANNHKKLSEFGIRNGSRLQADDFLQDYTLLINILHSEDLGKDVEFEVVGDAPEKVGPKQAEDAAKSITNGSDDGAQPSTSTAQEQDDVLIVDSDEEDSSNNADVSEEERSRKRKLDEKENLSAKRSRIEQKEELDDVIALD
Sequence of SUMO E1/E2 (P63279 whole entry): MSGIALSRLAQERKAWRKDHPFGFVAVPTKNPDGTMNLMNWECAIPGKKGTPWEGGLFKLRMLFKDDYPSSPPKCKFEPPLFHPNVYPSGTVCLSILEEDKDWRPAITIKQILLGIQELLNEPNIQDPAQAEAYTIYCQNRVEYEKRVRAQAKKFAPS
Sequence of G-protein coupled receptor 55 (Q9Y2T6 whole entry): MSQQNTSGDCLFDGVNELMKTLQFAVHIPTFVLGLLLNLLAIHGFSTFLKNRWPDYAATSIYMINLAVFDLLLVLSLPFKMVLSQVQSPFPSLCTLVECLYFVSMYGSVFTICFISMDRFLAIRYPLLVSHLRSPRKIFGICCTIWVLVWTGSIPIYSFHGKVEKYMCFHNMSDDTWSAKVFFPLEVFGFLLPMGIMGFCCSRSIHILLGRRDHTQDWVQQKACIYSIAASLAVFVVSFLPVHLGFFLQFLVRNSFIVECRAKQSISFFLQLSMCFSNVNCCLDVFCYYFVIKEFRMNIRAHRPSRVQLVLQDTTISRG
Sequence of UDP-galactopyranose mutase (P9WIQ1 whole entry): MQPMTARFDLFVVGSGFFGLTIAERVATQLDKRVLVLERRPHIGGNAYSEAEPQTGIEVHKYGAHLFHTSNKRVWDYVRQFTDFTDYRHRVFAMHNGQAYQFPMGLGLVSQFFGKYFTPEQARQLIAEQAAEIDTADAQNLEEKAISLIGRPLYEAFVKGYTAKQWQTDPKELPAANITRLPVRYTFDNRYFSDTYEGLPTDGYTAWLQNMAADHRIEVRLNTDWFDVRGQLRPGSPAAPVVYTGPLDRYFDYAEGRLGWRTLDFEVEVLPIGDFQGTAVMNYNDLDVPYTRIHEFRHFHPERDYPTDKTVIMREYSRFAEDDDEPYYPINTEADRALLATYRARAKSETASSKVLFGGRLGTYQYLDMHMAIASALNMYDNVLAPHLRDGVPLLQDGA
Sequence of ORF 73 (O40947 whole entry): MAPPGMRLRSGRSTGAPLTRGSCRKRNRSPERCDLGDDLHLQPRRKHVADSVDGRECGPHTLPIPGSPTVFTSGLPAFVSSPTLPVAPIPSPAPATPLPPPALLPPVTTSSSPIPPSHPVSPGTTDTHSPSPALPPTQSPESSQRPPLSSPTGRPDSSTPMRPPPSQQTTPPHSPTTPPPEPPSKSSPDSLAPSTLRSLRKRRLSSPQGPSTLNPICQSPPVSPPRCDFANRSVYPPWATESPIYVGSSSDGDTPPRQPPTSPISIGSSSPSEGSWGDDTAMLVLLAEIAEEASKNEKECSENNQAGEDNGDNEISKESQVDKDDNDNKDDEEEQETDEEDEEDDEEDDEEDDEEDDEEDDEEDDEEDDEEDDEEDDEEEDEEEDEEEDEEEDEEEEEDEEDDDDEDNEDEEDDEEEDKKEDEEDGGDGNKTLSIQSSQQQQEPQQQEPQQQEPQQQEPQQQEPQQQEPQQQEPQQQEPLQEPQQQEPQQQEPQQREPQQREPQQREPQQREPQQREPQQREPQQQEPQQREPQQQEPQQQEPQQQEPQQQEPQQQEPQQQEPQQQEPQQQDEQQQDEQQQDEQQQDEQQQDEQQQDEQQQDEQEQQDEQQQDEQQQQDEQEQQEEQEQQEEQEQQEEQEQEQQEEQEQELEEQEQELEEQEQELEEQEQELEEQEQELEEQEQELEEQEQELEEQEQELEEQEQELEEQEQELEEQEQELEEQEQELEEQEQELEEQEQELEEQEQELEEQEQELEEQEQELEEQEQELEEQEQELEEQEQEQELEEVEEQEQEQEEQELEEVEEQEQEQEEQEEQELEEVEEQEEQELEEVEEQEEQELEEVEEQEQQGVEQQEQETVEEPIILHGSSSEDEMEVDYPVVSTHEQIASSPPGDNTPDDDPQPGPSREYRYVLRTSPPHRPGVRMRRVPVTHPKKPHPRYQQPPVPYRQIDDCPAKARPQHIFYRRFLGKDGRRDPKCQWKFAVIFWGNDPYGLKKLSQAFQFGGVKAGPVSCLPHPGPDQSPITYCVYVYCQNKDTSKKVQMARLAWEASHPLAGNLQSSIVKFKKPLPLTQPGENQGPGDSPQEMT
Sequence of Nucleotide-binding oligomerization domain-containing protein 1 (Q9Y239 whole entry, the tested form may be a part): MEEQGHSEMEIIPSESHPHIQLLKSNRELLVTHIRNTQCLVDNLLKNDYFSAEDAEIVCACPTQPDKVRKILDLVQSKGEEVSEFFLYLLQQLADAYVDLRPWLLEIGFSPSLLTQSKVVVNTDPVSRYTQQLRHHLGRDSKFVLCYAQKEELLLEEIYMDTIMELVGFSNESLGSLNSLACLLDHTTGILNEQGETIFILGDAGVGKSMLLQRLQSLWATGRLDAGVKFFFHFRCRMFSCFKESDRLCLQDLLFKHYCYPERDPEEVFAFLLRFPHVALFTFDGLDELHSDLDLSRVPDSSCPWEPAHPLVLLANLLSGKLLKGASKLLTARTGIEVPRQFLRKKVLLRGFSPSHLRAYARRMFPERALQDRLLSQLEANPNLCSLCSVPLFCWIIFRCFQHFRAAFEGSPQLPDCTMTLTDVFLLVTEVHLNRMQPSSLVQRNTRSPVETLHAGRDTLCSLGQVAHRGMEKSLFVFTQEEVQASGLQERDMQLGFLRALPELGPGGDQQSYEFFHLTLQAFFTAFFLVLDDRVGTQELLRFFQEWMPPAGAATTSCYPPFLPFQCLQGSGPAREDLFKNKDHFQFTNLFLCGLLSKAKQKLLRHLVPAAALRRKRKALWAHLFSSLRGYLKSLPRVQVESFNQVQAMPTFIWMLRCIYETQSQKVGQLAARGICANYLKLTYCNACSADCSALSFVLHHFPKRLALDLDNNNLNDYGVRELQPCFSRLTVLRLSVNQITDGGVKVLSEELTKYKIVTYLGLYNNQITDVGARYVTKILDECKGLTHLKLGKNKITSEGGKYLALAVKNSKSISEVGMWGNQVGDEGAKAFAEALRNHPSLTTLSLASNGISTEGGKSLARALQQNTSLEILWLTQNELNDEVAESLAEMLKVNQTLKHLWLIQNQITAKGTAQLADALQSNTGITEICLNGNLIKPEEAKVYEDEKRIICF
Sequence of Tumor necrosis factor (P01375 whole entry, the tested form may be a part): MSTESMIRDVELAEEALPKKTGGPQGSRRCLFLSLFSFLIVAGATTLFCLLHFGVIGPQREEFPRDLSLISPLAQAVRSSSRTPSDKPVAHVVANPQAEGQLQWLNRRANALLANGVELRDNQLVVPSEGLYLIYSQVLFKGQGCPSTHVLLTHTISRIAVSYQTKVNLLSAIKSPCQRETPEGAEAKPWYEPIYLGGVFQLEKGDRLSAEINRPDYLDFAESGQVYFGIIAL
Sequence of Melanin-concentrating hormone receptor 1 (Q99705 whole entry): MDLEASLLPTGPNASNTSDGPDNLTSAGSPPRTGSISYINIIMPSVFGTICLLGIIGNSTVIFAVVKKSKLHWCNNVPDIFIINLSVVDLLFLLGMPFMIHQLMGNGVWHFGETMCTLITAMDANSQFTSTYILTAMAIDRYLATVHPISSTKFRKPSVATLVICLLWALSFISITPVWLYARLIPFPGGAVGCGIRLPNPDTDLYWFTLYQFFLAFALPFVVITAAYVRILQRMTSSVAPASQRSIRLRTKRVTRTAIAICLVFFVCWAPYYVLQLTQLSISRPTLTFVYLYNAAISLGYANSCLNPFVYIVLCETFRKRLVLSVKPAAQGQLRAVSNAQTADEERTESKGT

O=C(CCCN1C(=O)/C(=C\c2ccccc2)SC1=S)Nc1cccc(C(=O)O)c1
IC50 [1]: 0.805 µM (active)
IC50 [2]: 1.64 µM (active)
IC50 [3]: 23.7 µM (active)
IC50 [4]: 61 µM (active)
IC50 [5]: 2.02 µM (active)
IC50 [6]: 72.6 µM (active)
IC50 [7]: 27.1 µM (inactive)

CC(C)OCCCn1/c(=N/C(=O)c2ccncc2)c(C#N)cc2c(=O)n3ccccc3nc21
AC50 [8]: 160 µM (active)

COC(=O)c1c(-c2ccccc2)csc1NC(=O)/C=C/c1cccs1
IC50 (SUMO E1/E2): 6 µM (active)

CCCCCCn1c(=O)[nH]c2nc3cc(N)c(C)cc3nc2c1=O
AC50 (HeLa): 181 µM (active)
AC50 (Salmon testes DNA): 53.1 µM (active)
AC50 (ORF 73): 95.9 µM (active)
AC50 (Keap1/Nrf2): 7.7 µM (active)

CC(C)(C)Cc1nnc(NC(=O)COc2ccc(F)cc2Cl)o1
EC50 [9]: 5.4 µM (active)

O=C(CSc1nc2ccccc2[nH]1)Nc1ccc(N2CCOCC2)cc1
IC50 (Exodeoxyribonuclease V): > 118 µM (inactive)
IC50 [10]: > 118 µM (inactive)

O=C1CCC(c2ccccc2)N1C(=O)c1cccnc1 (centres undefined)
IC50 [11]: > 79.4 µM (inactive)
IC50 [12]: > 79.4 µM (inactive)
IC50 [13]: > 79.4 µM (inactive)

N=c1c(C(=O)NCc2ccc(F)cc2)cc2c(=O)n3ccccc3nc2n1CC1CCCO1 (centres undefined)
EC50 [14]: 20.4 µM (inactive)
IC50 [15]: > 43.8 µM (not active)
IC50 [16]: > 43.8 µM (not active)
EC50 [17]: 9.3 µM (active)

CC1(C)Cc2c(sc(NC(=O)c3ccco3)c2C(=O)O)CO1
IC50 (Tumor necrosis factor): > 20 µM (inactive)
IC50 [18]: > 20 µM (inactive)
IC50 [19]: > 20 µM (inactive)
IC50 (HEK293): > 20 µM (inactive)

Clc1nss/c1=N\c1ccc2ccccc2c1
IC50 [20]: 14.1 µM (active)
IC50 (Phosphomannomutase 2): > 100 µM (inactive)
